Assay results: patent publication US8815919B2, “Oxadiazole derivatives” (Merck Serono SA, priority 2009, dated 2014)
Counter-ions that a name gives are not always drawn. Like-named read-outs stand apart in the source and are kept apart here.

Key:
S1P1 [1] = molecular target: T1, S1P1 (Homo sapiens, UniProt P21453); assay: S1P1 internalization assay in S1P1-U2OS cells (S1P1-EGFP), cell imaging; type: cell-based; parameters: host or cells: U2OS (human bone osteosarcoma epithelial cells), CMV promoter, geneticin selection; settings: 1 hour incubation
Procedure, shortened: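 U2OS cells stably expressing human S1P1-EGFP, plated overnight in 1% FCS medium, then serum-starved 2 h in 0.1% fatty-acid-free BSA before 1 h compound exposure at 37 °C. After PFA fixation and Hoechst staining, internalization imaged as EGFP spot count per nucleus.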
Target sequence in this assay (P21453 whole entry): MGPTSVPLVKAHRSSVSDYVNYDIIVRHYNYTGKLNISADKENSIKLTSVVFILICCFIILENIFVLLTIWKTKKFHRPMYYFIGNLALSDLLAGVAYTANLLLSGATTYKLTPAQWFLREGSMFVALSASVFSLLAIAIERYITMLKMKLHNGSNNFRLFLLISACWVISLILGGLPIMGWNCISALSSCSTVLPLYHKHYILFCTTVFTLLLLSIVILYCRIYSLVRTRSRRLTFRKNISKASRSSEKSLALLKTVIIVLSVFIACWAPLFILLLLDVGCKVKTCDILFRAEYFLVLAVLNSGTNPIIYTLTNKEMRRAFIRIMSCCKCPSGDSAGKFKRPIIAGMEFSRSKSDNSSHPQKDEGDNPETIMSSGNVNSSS

S1P1 [2] = molecular target: T1, S1P1; assay: 35S-GTPγS binding on membranes of CHO cells expressing S1P1; type: biochemical; settings: read-out: S1P1/GTPG EC50
Method: (§1) Membranes were prepared from CHO cells expressing S1P1 or S1P3 for use in ligand and […] binding studies. Cells were suspended in 50 mM TRIS, pH 7.4, 2 mM EDTA, 250 mM Sucrose (buffer A) and 1× Complete protease inhibitor cocktail (Roche), and disrupted at 4° C. by N2 decompression using a cell disruption bomb (Parr Instrument). Following centrifugation at 1000 RPM for 10 min at 4° C., the supernatant was diluted (2×) in buffer A and centrifuged again at 19000 RPM for 75 min at 4° C. The pellet was then suspended in 10 mM HEPES, pH 7.4, 1 mM EDTA, 250 mM Sucrose (Buffer B), and 1× Complete EDTA-free protease inhibitor cocktail and homogenized using a potter. Membranes were flash frozen in liquid N2 and stored at −80° C.
(§2) Membranes (1 to 10 μg protein) prepared as described above, were incubated in 96-well Scintiplates (PerkinElmer) with test compounds diluted in DMSO, in 140 μl of 20 mM HEPES, pH 7.4, 10 mM MgCl2, 2 μg/well Saponin, 0.2% fatty acid free BSA (Assay buffer), 125 mM NaCl and 1.5 μM GDP. The assay was initiated with the addition of 60 μl of 1.5 nM [35S]-GTPγS (1100 Ci/mmol; GE Healthcare) in assay buffer. After 60 min incubation at 30° C. on a shaker, plates were centrifuged for 10 min at 2000 RPM. Supernatant was discarded and membrane bound radioactivity was measured on a PerkinElmer 1450 MicroBeta counter. Triplicate samples were averaged and expressed as % response relative to S1P activation in absence of compound (n=2).
(§3) The “potency” or the “activity” of the compounds is determined by the EC50 values as evaluated in the above described 35S-GTPγS binding assay.
Target sequence in this assay (P21453 whole entry, species assumed): as the sequence (P21453 whole entry) above

S1P3 [3] = molecular target: T2, S1P3 (Homo sapiens, UniProt Q99500); assay: 35S-GTPγS binding on membranes of CHO cells expressing S1P3; type: biochemical; settings: read-out: S1P3/GTPG EC50
Method: as §1, §2, §3

S1P1 [4] = molecular target: T1, S1P1; assay: Receptor binding assay, [33P]sphingosine 1-phosphate competition, S1P1 membranes, WGA SPA beads
Procedure, shortened: (§4)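 Competition of [33P]S1P ([…]) on CHO cell membranes with WGA SPA beads in 50 mM HEPES pH 7.5, 5 mM MgCl2, 100 mM NaCl, 0.4% fatty acid-free BSA; 60 min at RT. Triplicates normalised to total binding and nonspecific binding (1000-fold excess unlabeled S1P).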
Target sequence in this assay (P21453 whole entry, species assumed): as the sequence (P21453 whole entry) above

S1P3 [5] = molecular target: T2, S1P3; assay: Receptor binding assay, [33P]sphingosine 1-phosphate competition, S1P3 membranes, WGA SPA beads
Procedure, shortened: as §4

[6] = Pharmacokinetics in mouse (PK parameters from lymphopenia study); type: in vivo; settings: 30 mpk
Method: (§5) Female C57BL/6 mice (Elevage Janvier) (8 week old) receive S1P agonists by oral route. Blood is sampled in heparinized (100 IU/kg, ip) mice by intracardiac or retroorbital puncture under isoflurane anesthesia 2 to 120 hrs after drug treatment. The white blood cells (lymphocytes and neutrophils) are counted using a Beckman/Coulter counter. The quality of blood sampling is assessed by counting erythocytes and platelets.
Pharmacokinetics Data: • The pharmacoinetic properties of compound of example 20, N-(3-fluoro-5-{5-[2-(methoxymethyl)-2′-methylbiphenyl-4-yl]-1,2,4-oxadiazol-3-yl}benzyl)-N-methylglycine, hydrochloride salt, are the following: […]

lymphocytes = assay: Model of S1P agonists-induced lymphopenia in mice; type: in vivo; settings: oral
Method: as §5

[7] = 96 well-plate, read-out: S1P1 binding Ki (M) (96 well-plate)
[8] = 96 well-plate, read-out: S1P3 binding Ki (M) (96 well-plate)
[9] = 384 well-plate, read-out: S1P3 binding Ki (M) (384 well-plate)
[10] = 384 well-plate, read-out: S1P1 binding Ki (M) (384 well-plate)
[11] = female, C57BL/6, plasma, po, 30 mg/kg

T2 sequence (Q99500 whole entry, species assumed): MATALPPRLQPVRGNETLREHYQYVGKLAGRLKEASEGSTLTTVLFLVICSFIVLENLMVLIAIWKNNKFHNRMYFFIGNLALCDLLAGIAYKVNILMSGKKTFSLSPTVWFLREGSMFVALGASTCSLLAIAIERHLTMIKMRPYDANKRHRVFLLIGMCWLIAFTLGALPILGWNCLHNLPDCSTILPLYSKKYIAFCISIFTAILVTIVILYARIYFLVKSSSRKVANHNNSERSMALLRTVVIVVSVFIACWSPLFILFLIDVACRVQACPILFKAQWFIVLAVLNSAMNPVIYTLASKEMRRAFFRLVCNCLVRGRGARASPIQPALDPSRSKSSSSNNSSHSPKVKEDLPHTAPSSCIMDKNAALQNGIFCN

| SMILES | melting point [°C] | EC50 (S1P1 [1]) [nM] | EC50 (S1P1 [2]) [nM] | EC50 (S1P3 [3]) [nM] | Ki (S1P1 [4]; [7]) [M] | further results |
| --- | --- | --- | --- | --- | --- | --- |
| COCc1cc(-c2nc(-c3cccc(CN(C)CC(=O)O)c3)no2)ccc1-c1ccc(F)cc1C (as salt: hydrochloride) [Example 36, N-(3-{5-[4′-fluoro-2-(methoxymethyl)-2′-methylbiphenyl-4-yl]-1,2,4-oxadiazol-3-yl}benzyl)-N-methylglycine, hydrochloride salt] | 214 to 216 |  |  |  |  |  |
| COCc1cc(-c2nc(-c3cccc(CN(C)CC(=O)O)c3)no2)ccc1-c1ccccc1Cl [Example 11, N-(3-{5-[2′-chloro-2-(methoxymethyl)biphenyl-4-yl]-1,2,4-oxadiazol-3-yl}benzyl)-N-methylglycine, hydrochloride salt] |  | 10.6 | 2.74 | 673 | 6.21e-10 |  |
| CC1CCCCN1c1ccc(-c2nc(-c3cccc(CN(C)CC(=O)O)c3)no2)cc1C(F)(F)F (stereo not drawn) [Example 13, N-methyl-N-(3-{5-[4-(2-methylpiperidin-1-yl)-3-(trifluoromethyl)phenyl]-1,2,4-oxadiazol-3-yl}benzyl)glycine] |  | 7.38 | 0.96 | 470 | 4.58e-10 | Ki (S1P3 [5]; [8]): 8.95e-08 M; Ki (S1P3 [5]; [9]): 2.75e-07 M |
| COCc1cc(-c2nc(-c3ccc(CN(C)CC(=O)O)c(F)c3)no2)ccc1-c1ccccc1Cl (as salt: hydrochloride) [Example 119, N-(4-{5-[2′-chloro-2-(methoxymethyl)biphenyl-4-yl]-1,2,4-oxadiazol-3-yl}-2-fluorobenzyl)-N-methylglycine, hydrochloride salt] | 181 to 188 |  |  |  |  |  |
| COCc1cc(-c2nc(-c3cc(F)cc(CN(C)CCC(=O)O)c3)no2)ccc1-c1ccccc1C [Example 21, N-(3-fluoro-5-{5-[2-(methoxymethyl)-2′-methylbiphenyl-4-yl]-1,2,4-oxadiazol-3-yl}benzyl)-N-methyl-beta-alanine, hydrochloride salt] |  | 4.52 | 0.332 | 15 | 1.17e-10 | Ki (S1P3 [5]; [8]): 1.13e-08 M; Ki (S1P3 [5]; [9]): 1.56e-08 M; Ki (S1P1 [4]; [10]): 9.99e-10 M |
| Cc1cc(-c2nc(-c3ccc(CN(C)CC(=O)O)cc3)no2)ccc1-c1ccccc1C(F)F (as salt: hydrochloride) [Example 137, N-(4-{5-[2′-(difluoromethyl)-2-methylbiphenyl-4-yl]-1,2,4-oxadiazol-3-yl}benzyl)-N-methylglycine, hydrochloride salt] | 229 to 234 |  |  |  |  |  |
| COCc1cc(-c2nc(-c3cccc(S(C)(=O)=O)c3)no2)ccc1N1CCCCC1C (stereo not drawn) [Example 6, 1-(2-(methoxymethyl)-4-{3-[3-(methylsulfonyl)phenyl]-1,2,4-oxadiazol-5-yl}phenyl)-2-methylpiperidine, hydrochloride salt] |  | 4.39 | 1.9 | 2280 | 1.24e-09 |  |
| CC1CCCCN1c1ccc(-c2nc(-c3cccc(COCCC(=O)O)c3)no2)cc1C(F)(F)F (stereo not drawn) [Example 12, 3-[(3-{5-[4-(2-methylpiperidin-1-yl)-3-(trifluoromethyl)phenyl]-1,2,4-oxadiazol-3-yl}benzyl)oxy]propanoic acid, hydrochloride salt] |  | 9.84 | 4.61 | 692 | 3.08e-09 |  |
| COC(C)c1cc(-c2nc(-c3ccc(CN(C)CC(=O)O)cc3)no2)ccc1-c1ccccc1C (stereo not drawn) (as salt: hydrochloride) (hydrate or solvate) [Example 140, N-(4-{5-[2-(1-methoxyethyl)-2′-methylbiphenyl-4-yl]-1,2,4-oxadiazol-3-yl}benzyl)-N-methylglycine, hydrochloride salt] | 179 to 181 |  |  |  |  |  |
| COCc1cc(-c2nc(-c3cccc(CN(C)CC(=O)O)c3)no2)ccc1-c1ccccc1F [Example 10, N-(3-{5-[2′-fluoro-2-(methoxymethyl)biphenyl-4-yl]-1,2,4-oxadiazol-3-yl}benzyl)-N-methylolycine, hydrochloride salt] |  | 3.31 | 0.907 | 130 | 1.79e-10 | Ki (S1P3 [5]; [8]): 2.33e-08 M; Ki (S1P3 [5]; [9]): 1.22e-07 M |
| COCc1cc(-c2nc(-c3ccc(CN(C)CC(=O)O)cc3)no2)ccc1-c1ccccc1Cl (as salt: hydrochloride) [Example 118, N-(4-{5-[2′-chloro-2-(methoxymethyl)biphenyl-4-yl]-1,2,4-oxadiazol-3-yl}benzyl)-N-methylglycine, hydrochloride salt] | 194 to 200 |  |  |  |  |  |
| COCc1cc(-c2nc(-c3cccc(CN(C)CC(=O)O)c3)no2)ccc1-c1cc(F)ccc1C (as salt: hydrochloride) [Example 37, N-(3-{5-[5′-fluoro-2-(methoxymethyl)-2′-methylbiphenyl-4-yl]-1,2,4-oxadiazol-3-yl}benzyl)-N-methylglycine, hydrochloride salt] | 177 to 183 |  |  |  |  |  |
| COCc1cc(-c2nc(-c3cccc(CN(C)CC(=O)O)c3)no2)ccc1-c1cccc(F)c1C (as salt: hydrochloride) [Example 35, N-(3-{5-[3′-fluoro-2-(methoxymethyl)-2′-methylbiphenyl-4-yl]-1,2,4-oxadiazol-3-yl}benzyl)-N-methylglycine, hydrochloride salt] | 216 to 218 |  |  |  |  |  |
| COCc1cc(-c2nc(-c3cc(F)cc(CN(C)CC(=O)O)c3)no2)ccc1-c1ccccc1C [Example 20, N-(3-fluoro-5-{5-[2-(methoxymethyl)-2′-methylbiphenyl-4-yl]-1,2,4-oxadiazol-3-yl}benzyl)-N-methylglycine, hydrochloride salt] |  | 5.33 | 0.717 | 59.9 | 1.69e-10 | Plasma AUD? [6]: 202.751 µg·h/mL; Lymph node/plasma ratio: 24 h ([6]; 24 h): 0.8; Lymph node/plasma ratio: 48 h ([6]; 48 h): 0.7; Kp ([6]; female, C57BL/6, brain, oral, 30 mg/kg, ratio of AUC, read-out: Brain/Plasma-Ratio: AUCZ (h*ng/ml)): 0.15; Cmax [6, 11]: 10300 ng/mL; Tmax [6, 11]: 4 h; half-life [6, 11]: 5.3 h; CL/F ([6]; female, C57BL/6, plasma, po, 30 mg/kg, read-out: Cl/F (L/kg/h) (Fz%)): 0.15 L/kg/h; % Lymphopenia in mouse at 48 h (lymphocytes): 72 ± 5%; Ki (S1P3 [5]; [8]): 1.73e-08 M; Ki (S1P3 [5]; [9]): 7.78e-08 M; Ki (S1P1 [4]; [10]): 1.33e-09 M |
